Laboratory results from patent US20080057055A1, “OLD-35 as an inflammatory agent” (priority 2004, published 2008).

Key:
[1] = test system: HO-1, WM-35, MeWo and FM-516 cells; experiment: Cell cycle analysis by flow cytometry after IFN-β; type: cell-based, human; conditions: HO-1 clones, IFN-β 1000 U/ml
Method: Cell Cycle Analysis: Cells were harvested, washed in PBS and fixed overnight at −20° C. in 70% ethanol. The cells were treated with RNase A (1 mg/ml) at 37° C. for 30 min and then with propidium iodide (50 μg/ml). Cell cycle was analyzed using a FACScan flow cytometer and data were analyzed using CellQuest software (Becton Dickinson, San Jose, Calif.).

[2] = test system: HO-1 cells; experiment: Colony formation assay with IFN-β; type: cell-based, human; conditions: HO-1 clones
Method: (§1) Transfection of siRNA: Cells (5×10^5) were plated in a 6 cm dish and the next day were transfected with 25 nM of either control siRNA or c-myc siRNA (Ambion; catalogue# 4250) using Lipofectamine 2000 (Invitrogen) according to the Manufacturer's protocol. After 24 h, the cells were trypsinized and seeded into 96-well plates for cell viability assays and 6-cm dishes for colony formation assays and cell cycle analyses as described above.

[3] = test system: HO-1 cells; experiment: MTT cell viability assay; type: cell-based, human; conditions: HO-1 clones, more pronounced after 6 days
Method: as §1

[4] = test system: c-myc mRNA; experiment: Half-life of c-myc mRNA (Actinomycin D, Northern blot); type: cell-based, human; conditions: HO-1 clones expressing the siRNA, compared to control untreated cells
Method: RNA Isolation and Northern Blot Analysis: Total RNA was extracted from cells using Qiagen RNeasy mini kit (Qiagen) according to the manufacturer's protocol and Northern blotting was performed as described (102). The cDNA probes used were a 400-bp fragment from human c-myc, a 500-bp fragment from hPNPase^old-35 and full-length human GAPDH.

[5] = test system: hPNPase^OLD-35 and Myc proteins; experiment: Western blot after IFN-β treatment or siRNA; type: cell-based, human
[6] = test system: IκBα, p65; experiment: Western blot of cytoplasmic and nuclear extracts; type: cell-based, human; conditions: 20 mM NAC, 2 days post-infection
Method: Cell Fractionation. Cells were harvested and the cytoplasm and nucleus were fractionated by the modified Schreiber's method as described (31). Briefly, the cells were washed with PBS and lysed for 10 min in Buffer A (10 mM HEPES pH 7.9, 10 mM KCl, 1.5 mM MgCl2, 1 mM EDTA, 1 mM dithiothreitol, 0.1% Nonidet P-40) containing protease inhibitor cocktail (Roche, Mannheim, Germany). After centrifugation, the supernatant was saved as the cytoplasmic fraction and the pellet containing nuclei was lysed in Buffer B (20 mM HEPES pH 7.9, 400 mM KCl, 20% glycerol, 1 mM EDTA, 1 mM DTT) containing protease inhibitor cocktail (Roche) with one freeze-thaw cycle. After centrifugation the supernatant was collected as the nuclear fraction. Protein concentration was determined by Bio-Rad protein assay kit (Bio-Rad laboratories, Hercules, Calif.).
Preparation of Whole Cell Lysates and Western Blot Analysis. Whole cell lysates were prepared and Western blotting was performed as described (4). Briefly, cells were harvested in RIPA buffer containing protease inhibitor cocktail (Roche, Mannheim, Germany), 1 mM Na3VO4 and 50 mM NaF and centrifuged at 12,000 rpm for 10 min at 4° C. The supernatant was used as total cell lysate. Thirty μg of total cell lysate were used for SDS-PAGE and transferred to a nitrocellulose membrane. […]

[7] = test system: IL-6; experiment: Human IL-6 ELISA in culture supernatants; type: cell-based; conditions: HeLa, Ad.hPNPase 50 pfu/cell; plus 20 mM NAC
Source text: (§2) Human IL-6 and IL-8 ELISA. The levels of IL-6 and IL-8 were quantified by ELISA in culture supernatants using human IL-6 ELISA kit (Pierce Biotechnology, Rockford, Ill.) and human IL-8 ELISA kit (Pierce), respectively, according to the manufacturer's protocol.

[8] = test system: HeLa cells; experiment: Monitoring ROS production by flow cytometry (HE and DCFH-DA staining); type: cell-based, human; conditions: Ad.hPNPase 50 pfu/cell, plus 20 mM NAC
Method: Cell Lines, Reagents and Virus Infection protocol. The human cervical carcinoma cell line HeLa was cultured in Dulbecco's Modified Eagle Medium (DMEM) supplemented with 10% fetal calf serum, penicillin (50 units/ml) and streptomycin (50 μg/ml) at 37° C. in 5% CO2 and 100% relative humidity. N-acetyl-L-cysteine and Tiron were obtained from Sigma (St. Louis, Mo.). The recombinant replication-incompetent adenovirus expressing old-35 (Ad.hPNPase) was created in two steps as described previously and plaque purified by standard procedures (1, 28). Cells were infected with a multiplicity of infection (m.o.i.) of 1 to 50 plaque forming units (pfu)/cell of Ad.vec (control replication-incompetent adenovirus) or Ad.hPNPase as described (29).
Monitoring ROS Production. Cells were stained with 2.5 μM hydroethidine (HE) and 5 μM 5,6-carboxy-2′,7′-dichlorofluorescein diacetate (DCFH-DA) in PBS for 30 min in the dark (32). Immediately after staining the cells were analyzed by flow cytometry (FACScan; Becton Dickinson, Mountain View, Calif.) and data were analyzed using CellQuest software, version 3.1 (Becton Dickinson). The cells were gated to exclude cell debris.

[9] = test system: IL-8; experiment: Human IL-8 ELISA in culture supernatants; type: cell-based; conditions: HeLa, Ad.hPNPase 50 pfu/cell; plus 20 mM NAC
Source text: as §2

| Compound | response of siRNA expressing clones to growth inhibition by IFN-β (cell cycle) [1] | response of siRNA expressing clones to IFN-β-induced inhibition of colony formation [2] | response of siRNA expressing clones to IFN-β (MTT) [3] | half-life of c-myc mRNA after IFN-β [4] | inhibition in hPNPase^OLD-35 induction by IFN-β ([5]; HO-1 clone 1 expressing the siRNA, IFN-β 1000 U/ml, 2 days) [%] | ability to downregulate Myc in response to IFN-β ([5]; HO-1 clones 1, 4 and 5 expressing the siRNA) | degradation of IκBα and nuclear translocation of p65 by Ad.hPNPase^old-35 infection [6] | secreted IL-6 in culture supernatant [7] | percentage of high ROS containing cells ([8]; 24 hr) [%] | percentage of high ROS containing cells ([8]; 36 hr) [%] | secreted IL-8 in culture supernatant [9] |
| --- | --- | --- | --- | --- | --- | --- | --- | --- | --- | --- | --- |
| hPNPase^old-35-siRNA: lentivirus-expressed siRNA for hPNPase^old-35, sequence 5′ AACAAAACCTTCCCCTTCCCA 3′ (SEQ ID NO:40) | remarkable resistance | significant resistance | significant resistance | remained unchanged | ~100 | lost this ability |  |  |  |  |  |
| CC(=O)N[C@@H](CS)C(=O)O [NAC, N-acetyl-L-cysteine] |  |  |  |  |  |  | inhibited | markedly inhibited | ~2 | ~3 | markedly inhibited |
